Toxic doses and inconclusive results are not listed.
Tested on: CD2F1 mice, L1210 leukemia ip, survival T/C
Experiment: NCI In Vivo Anticancer Drug Screen. Data for tumor model L1210 Leukemia (intraperitoneal) in CD2F1 (CDF1) mice
Conditions: endpoint: mean survival time, higher = longer survival
How it was run: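 Implant tumor; dose compound or vehicle; measure endpoint in both groups; report treated divided by control.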

[1] = dose: 100.0 mg/kg/injection, schedule: Q01DX009 (ip), vehicle: saline with Tween-80
[2] = dose: 200.0 mg/kg/injection, schedule: Q01DX009 (ip), vehicle: saline with Tween-80
[3] = dose: 400.0 mg/kg/injection, schedule: Q01DX009 (ip), vehicle: saline with Tween-80
[4] = dose: 100.0 mg/kg/injection, schedule: Q04DX003 (ip), vehicle: saline with Tween-80
[5] = dose: 100.0 mg/kg/injection, schedule: Q04DX003 (ip), vehicle: saline
[6] = dose: 200.0 mg/kg/injection, schedule: Q04DX003 (ip), vehicle: saline
[7] = dose: 400.0 mg/kg/injection, schedule: Q04DX003 (ip), vehicle: saline

For N#CSCCSC#N, the T/C (dose: 2.5 mg/kg/injection, schedule: Q04DX003 (ip), vehicle: Klucel (hydroxypropylcellulose) (HPC)) was 102 % of control, the T/C (dose: 5.0 mg/kg/injection, schedule: Q04DX003 (ip), vehicle: Klucel (hydroxypropylcellulose) (HPC)) was 120 % of control and the T/C (dose: 10.0 mg/kg/injection, schedule: Q04DX003 (ip), vehicle: Klucel (hydroxypropylcellulose) (HPC)) was 105 % of control.
For COc1ccc(/C=N\NC(=O)c2ccccc2)cc1, the T/C [1] was 95 % of control, the T/C [2] was 95 % of control and the T/C [3] was 86 % of control.
In the case of CN1CC(NC(=O)N(CCCl)N=O)CC2c3cccc4c3c(cn4N=O)CC21 (stereo not drawn), the T/C (dose: 12.5 mg/kg/injection, schedule: Q01DX001 (ip), vehicle: other) is reported as 105 % of control, the T/C (dose: 25.0 mg/kg/injection, schedule: Q01DX001 (ip), vehicle: other) is reported as 117 % of control and the T/C (dose: 50.0 mg/kg/injection, schedule: Q01DX001 (ip), vehicle: other) is reported as 121 % of control. For the same compound, the T/C (dose: 200.0 mg/kg/injection, schedule: Q01DX001 (ip), vehicle: other) was 164 % of control and the T/C (dose: 400.0 mg/kg/injection, schedule: Q01DX001 (ip), vehicle: other) was 289 % of control.
Cc1cc(C)c(NC(=O)/C=C/c2ccccc2)c(C)c1 was tested, and the T/C (dose: 100.0 mg/kg/injection, schedule: Q04DX002 (ip), vehicle: saline with Tween-80) was 96 % of control, the T/C (dose: 200.0 mg/kg/injection, schedule: Q04DX002 (ip), vehicle: saline with Tween-80) was 89 % of control and the T/C (dose: 400.0 mg/kg/injection, schedule: Q04DX002 (ip), vehicle: saline with Tween-80) was 96 % of control.
With C[N+]([O-])(CCO)Cc1ccccc1 (stereo not drawn) the T/C (dose: 50.0 mg/kg/injection, schedule: Q01DX001 (ip), vehicle: carboxymethylcellulose (CMC)) was 102 % of control, the T/C (dose: 100.0 mg/kg/injection, schedule: Q01DX001 (ip), vehicle: carboxymethylcellulose (CMC)) was 112 % of control and the T/C (dose: 200.0 mg/kg/injection, schedule: Q01DX001 (ip), vehicle: carboxymethylcellulose (CMC)) was 112 % of control. The T/C (dose: 400.0 mg/kg/injection, schedule: Q01DX001 (ip), vehicle: carboxymethylcellulose (CMC)) was 112 % of control.
In the case of CCc1ccc(C(=O)O)cc1S(=O)(=O)Cl, the T/C (dose: 12.5 mg/kg/injection, schedule: Q01DX009 (ip), vehicle: saline with Tween-80) is reported as 101 % of control, the T/C (dose: 12.5 mg/kg/injection, schedule: Q04DX003 (ip), vehicle: saline with Tween-80) is reported as 104 % of control and the T/C (dose: 25.0 mg/kg/injection, schedule: Q01DX009 (ip), vehicle: saline with Tween-80) is reported as 97 % of control. The T/C (dose: 25.0 mg/kg/injection, schedule: Q04DX003 (ip), vehicle: saline with Tween-80) was 101 % of control, the T/C (dose: 50.0 mg/kg/injection, schedule: Q01DX009 (ip), vehicle: saline with Tween-80) was 95 % of control and the T/C (dose: 50.0 mg/kg/injection, schedule: Q04DX003 (ip), vehicle: saline with Tween-80) was 103 % of control. The T/C [4] was 97 % of control.
In the case of F/C(=C\c1ccccc1)c1ccccc1, the T/C (dose: 50.0 mg/kg/injection, schedule: Q01DX001 (ip), vehicle: saline with Tween-80) is reported as 110 % of control, the T/C (dose: 100.0 mg/kg/injection, schedule: Q01DX001 (ip), vehicle: saline with Tween-80) is reported as 108 % of control and the T/C (dose: 200.0 mg/kg/injection, schedule: Q01DX001 (ip), vehicle: saline with Tween-80) is reported as 101 % of control.
With Cc1cccc(=N)n1CCC(=O)O the T/C (dose: 100.0 mg/kg/injection, schedule: Q01DX009 (ip), vehicle: saline) was 95 % of control, the T/C [5] was 112 % of control and the T/C (dose: 200.0 mg/kg/injection, schedule: Q01DX009 (ip), vehicle: saline) was 98 % of control. For the same compound, the T/C [6] was 94 % of control, the T/C (dose: 400.0 mg/kg/injection, schedule: Q01DX009 (ip), vehicle: saline) was 95 % of control and the T/C [7] was 96 % of control.
In the case of O=C(O)CNCNCC(=O)O, the T/C (dose: 100.0 mg/kg/injection, schedule: Q04DX002 (ip), vehicle: saline) is reported as 90 % of control and the T/C (dose: 200.0 mg/kg/injection, schedule: Q04DX002 (ip), vehicle: saline) is reported as 86 % of control.
For CC(OC1OC(C(=O)O)C(O)C(O)C1O)c1ccccc1 (stereo not drawn), the T/C [5] was 98 % of control, the T/C [6] was 98 % of control and the T/C [7] was 93 % of control.
O=C(CC(NC(=O)OCc1ccccc1)c1nn[nH]n1)OCc1ccccc1 (stereo not drawn) was tested, and the T/C [4] was 86 % of control, the T/C (dose: 200.0 mg/kg/injection, schedule: Q04DX003 (ip), vehicle: saline with Tween-80) was 94 % of control and the T/C (dose: 400.0 mg/kg/injection, schedule: Q04DX003 (ip), vehicle: saline with Tween-80) was 91 % of control.
CCOC(=O)Nc1ccccc1F was tested, and the T/C [1] was 98 % of control, the T/C [2] was 107 % of control and the T/C [3] was 95 % of control.
For CCOC(=S)SCCCC(C)CC (stereo not drawn), the T/C (dose: 100.0 mg/kg/injection, schedule: Q01DX001 (ip), vehicle: saline) was 100 % of control, the T/C (dose: 200.0 mg/kg/injection, schedule: Q01DX001 (ip), vehicle: saline) was 102 % of control and the T/C (dose: 400.0 mg/kg/injection, schedule: Q01DX001 (ip), vehicle: saline) was 102 % of control.
